Source: PubChem BioAssay (NCI)
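Results reflect a 48-hour exposure of cells in 96-well plates to compound at five concentrations. Definition used: TGI = concentration required for complete inhibition of growth.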

Legend:
Assay in all cases: NCI-60 cell line screen, 48 h
K-562 leukemia = tested on: K-562 leukemia
MDA-MB-231 breast = tested on: MDA-MB-231 breast
MALME-3M melanoma = tested on: MALME-3M melanoma
UACC-257 melanoma = tested on: UACC-257 melanoma
CCRF-CEM leukemia = tested on: CCRF-CEM leukemia
NCI-H226 lung = tested on: NCI-H226 lung
KM12 colon = tested on: KM12 colon
MCF7 breast = tested on: MCF7 breast
OVCAR-3 ovarian = tested on: OVCAR-3 ovarian
NCI-H23 lung = tested on: NCI-H23 lung
SF-539 CNS = tested on: SF-539 CNS
SN12C renal = tested on: SN12C renal
OVCAR-5 ovarian = tested on: OVCAR-5 ovarian
SK-MEL-2 melanoma = tested on: SK-MEL-2 melanoma
HOP-62 NSCLC = tested on: HOP-62 NSCLC
U251 CNS = tested on: U251 CNS
MOLT-4 leukemia = tested on: MOLT-4 leukemia
LOX IMVI melanoma = tested on: LOX IMVI melanoma
PC-3 prostate = tested on: PC-3 prostate
NCI/ADR-RES ovarian = tested on: NCI/ADR-RES ovarian
HCT-15 colon = tested on: HCT-15 colon
SF-268 CNS = tested on: SF-268 CNS
DU-145 prostate = tested on: DU-145 prostate
SNB-19 CNS = tested on: SNB-19 CNS
SK-OV-3 ovarian = tested on: SK-OV-3 ovarian
CAKI-1 renal = tested on: CAKI-1 renal
SK-MEL-28 melanoma = tested on: SK-MEL-28 melanoma
HCT-116 colon = tested on: HCT-116 colon
MDA-N = tested on: MDA-N
UO-31 renal = tested on: UO-31 renal
786-0 renal = tested on: 786-0 renal
M14 melanoma = tested on: M14 melanoma
COLO 205 colon = tested on: COLO 205 colon
UACC-62 melanoma = tested on: UACC-62 melanoma
IGROV1 ovarian = tested on: IGROV1 ovarian
SW-620 colon = tested on: SW-620 colon
ACHN renal = tested on: ACHN renal
EKVX NSCLC = tested on: EKVX NSCLC
RXF 393 renal = tested on: RXF 393 renal
RPMI-8226 leukemia = tested on: RPMI-8226 leukemia
T-47D breast = tested on: T-47D breast
MDA-MB-435 = tested on: MDA-MB-435
OVCAR-8 ovarian = tested on: OVCAR-8 ovarian
HT29 colon = tested on: HT29 colon
SK-MEL-5 melanoma = tested on: SK-MEL-5 melanoma
HS 578T breast = tested on: HS 578T breast
BT-549 breast = tested on: BT-549 breast
TK-10 renal = tested on: TK-10 renal
HL-60(TB) leukemia = tested on: HL-60(TB) leukemia
NCI-H460 lung = tested on: NCI-H460 lung
NCI-H522 lung = tested on: NCI-H522 lung
SR leukemia = tested on: SR leukemia
HOP-92 NSCLC = tested on: HOP-92 NSCLC
SNB-75 CNS = tested on: SNB-75 CNS
SF-295 CNS = tested on: SF-295 CNS
A498 renal = tested on: A498 renal
A549 NSCLC = tested on: A549 NSCLC
HCC-2998 colon = tested on: HCC-2998 colon
OVCAR-4 ovarian = tested on: OVCAR-4 ovarian

CC1CC/C(=C\c2ccc(Cl)cc2)C2OC(N)=C(C#N)C(c3ccc(Cl)cc3)=C12 (stereo not given)
TGI (K-562 leukemia): 51.8 µM
TGI (MDA-MB-231 breast): 23.7 µM
TGI (MALME-3M melanoma): 28.7 µM
TGI (UACC-257 melanoma): 53.4 µM
TGI (CCRF-CEM leukemia): 31.2 µM
TGI (NCI-H226 lung): 27.1 µM
TGI (KM12 colon): 28.8 µM
TGI (MCF7 breast): 29.8 µM
TGI (OVCAR-3 ovarian): 27.5 µM
TGI (NCI-H23 lung): 29.4 µM
TGI (SF-539 CNS): 28 µM
TGI (SN12C renal): 26.5 µM
TGI (OVCAR-5 ovarian): 37.5 µM
TGI (SK-MEL-2 melanoma): 27.2 µM
TGI (HOP-62 NSCLC): 9.84 µM
TGI (U251 CNS): 30.6 µM
TGI (MOLT-4 leukemia): 24.2 µM
TGI (LOX IMVI melanoma): 26.6 µM
TGI (PC-3 prostate): 28.4 µM
TGI (NCI/ADR-RES ovarian): 25.9 µM
TGI (HCT-15 colon): 23.1 µM
TGI (SF-268 CNS): 31.2 µM
TGI (DU-145 prostate): 34.5 µM
TGI (SNB-19 CNS): 39.6 µM
TGI (SK-OV-3 ovarian): 40 µM
TGI (CAKI-1 renal): 31.2 µM
TGI (SK-MEL-28 melanoma): 37.5 µM
TGI (HCT-116 colon): 27.4 µM
TGI (MDA-N): 32.2 µM
TGI (UO-31 renal): 24.9 µM
TGI (786-0 renal): 26.5 µM
TGI (M14 melanoma): 39 µM
TGI (COLO 205 colon): 25.2 µM
TGI (UACC-62 melanoma): 31 µM
TGI (IGROV1 ovarian): 26.5 µM
TGI (SW-620 colon): 89 µM
TGI (ACHN renal): 29.9 µM
TGI (EKVX NSCLC): 22.7 µM
TGI (RXF 393 renal): 71.8 µM
TGI (RPMI-8226 leukemia): 29.2 µM
TGI (T-47D breast): 17.8 µM
TGI (MDA-MB-435): 44.2 µM
TGI (OVCAR-8 ovarian): 27.4 µM
TGI (HT29 colon): 20.7 µM
TGI (SK-MEL-5 melanoma): 32.1 µM
TGI (HS 578T breast): 49.1 µM
TGI (BT-549 breast): 30.7 µM
TGI (TK-10 renal): 41.3 µM
TGI (HL-60(TB) leukemia): 27.4 µM

CC[N+]1(C)CCC(O)(c2ccc(Cl)c(Cl)c2)C(C(=O)c2ccc(Cl)c(Cl)c2)C1 (stereo not given)
TGI (NCI-H460 lung): > 10 µM
TGI (K-562 leukemia): > 10 µM
TGI (NCI-H522 lung): 7.44 µM
TGI (MALME-3M melanoma): > 10 µM
TGI (UACC-257 melanoma): > 10 µM
TGI (CCRF-CEM leukemia): 5.98 µM
TGI (NCI-H226 lung): > 10 µM
TGI (KM12 colon): > 10 µM
TGI (MCF7 breast): > 10 µM
TGI (OVCAR-3 ovarian): > 10 µM
TGI (NCI-H23 lung): > 10 µM
TGI (SF-539 CNS): > 10 µM
TGI (SN12C renal): > 10 µM
TGI (OVCAR-5 ovarian): > 10 µM
TGI (SK-MEL-2 melanoma): > 10 µM
TGI (HOP-62 NSCLC): > 10 µM
TGI (U251 CNS): > 10 µM
TGI (MOLT-4 leukemia): > 10 µM
TGI (LOX IMVI melanoma): > 10 µM
TGI (PC-3 prostate): > 10 µM
TGI (NCI/ADR-RES ovarian): > 10 µM
TGI (HCT-15 colon): > 10 µM
TGI (SF-268 CNS): > 10 µM
TGI (DU-145 prostate): > 10 µM
TGI (SNB-19 CNS): > 10 µM
TGI (SK-OV-3 ovarian): > 10 µM
TGI (SR leukemia): > 10 µM
TGI (CAKI-1 renal): > 10 µM
TGI (HOP-92 NSCLC): > 10 µM
TGI (SK-MEL-28 melanoma): > 10 µM
TGI (HCT-116 colon): > 10 µM
TGI (MDA-N): > 10 µM
TGI (UO-31 renal): > 10 µM
TGI (786-0 renal): > 10 µM
TGI (M14 melanoma): > 10 µM
TGI (COLO 205 colon): > 10 µM
TGI (IGROV1 ovarian): > 10 µM
TGI (SW-620 colon): > 10 µM
TGI (ACHN renal): > 10 µM
TGI (SNB-75 CNS): > 10 µM
TGI (EKVX NSCLC): > 10 µM
TGI (SF-295 CNS): > 10 µM
TGI (RXF 393 renal): > 10 µM
TGI (RPMI-8226 leukemia): > 10 µM
TGI (T-47D breast): > 10 µM
TGI (A498 renal): > 10 µM
TGI (A549 NSCLC): > 10 µM
TGI (OVCAR-8 ovarian): > 10 µM
TGI (HT29 colon): > 10 µM
TGI (SK-MEL-5 melanoma): > 10 µM
TGI (HS 578T breast): > 10 µM
TGI (BT-549 breast): > 10 µM
TGI (TK-10 renal): > 10 µM
TGI (HL-60(TB) leukemia): > 10 µM
TGI (HCC-2998 colon): > 10 µM
TGI (OVCAR-4 ovarian): > 10 µM
